From patent US20200316053A1, “APPLICATION OF NOVEL TYROSINE KINASE INHIBITOR, ANLOTINIB, IN OSTEOSARCOMA AND CHONDROSARCOMA” (CHIA TAI TIANQING PHARMACEUTICAL GROUP CO., LTD., priority 2018, published 2020)
Read-outs that look alike come from different tables or passages of the source. Each block holds one compound with its values, some of them ahead of it.

What was measured:
[1] = system: osteosarcoma of the right tibia, lung and pelvic metastasis; experiment: Clinical case Example 7: patient
Procedure: A patient underwent the resection of the lesion on Nov. 7, 2016. On Nov. […] PORT implantation was performed under general anesthesia on Nov. 29, 2016, and the postoperative systemic intravenous adjuvant chemotherapy was performed. […] 1, 2016, and methotrexate (2 cycles of chemotherapy) was administered from Dec. 16, 2016 to Jan. 5, 2017. The CT re-examination performed on Jan. […] Ifosfamide (1 cycle of chemotherapy) was administered on Jan. […] The segmental resection of the tumor of the right proximal tibia, the joint replacement and the transposition of gastrocnemius muscle flap were performed under general anesthesia on Feb. 7, 2017. […] Ifosfamide (1 course of chemotherapy) was administered on Mar. […] Methotrexate was administered on Mar. […] 15, 2017. […] 4, 2017, ifosfamide chemotherapy was given on Jun. […] Methotrexate chemotherapy was given on Jul. […] Ifosfamide chemotherapy was given on Aug. […] The CT re-examination performed on Jan. […] A puncture biopsy of the mass of right femur was performed on Oct.
The patient was treated with anlotinib dihydrochloride capsule (12 mg) once a day via oral administration (2 weeks of continuous administration and 1 week of withdrawal being considered as one treatment cycle) from Nov. 16, 2018. […] 26, 2018.

[2] = system: osteosarcoma (chondroblastic type) of the right proximal humerus, bilateral lung metastasis; experiment: Clinical case Example 6: patient; type: in vivo, human; conditions: prior high-dose chemotherapy, 6 courses, Aug-Dec 2016
Procedure: A patient underwent the surgical removal of the osteosarcoma lesion in the right proximal humerus and the humeral head prosthesis replacement on Apr. 27, 2013. […] Doxorubicin and ifosfamide were administered after the surgery. […] Bone marrow support therapy was given during the intermission of chemotherapy until the end of chemotherapy in August 2013. […] 1. […] 2. There were enlarged lymph nodes in the right axilla with slight increase in metabolism. The patient was treated by being administered with CIK cells via infusion after the completion of the chemotherapy. At the end of 2015, the patient experienced pain in the upper part of the left humerus, no obvious mass was seen, and the patient suffered from the recurrent pain. […] 1. There was no sign of tumor recurrence in the right humerus after the surgery of the osteosarcoma of the right humerus and the comprehensive treatment, and there was a stripe-shaped hypermetabolic lesion in the upper part of the left humerus. 2. There was no sign of lymph node metastasis in the bilateral armpits. 3. […] On Jun. 7, 2016 and Jul. 1, 2016, the patient underwent 2 courses of doxorubicin and ifosfamide chemotherapy and the process went well. […] Microwave inactivation of the tumor of the left proximal humerus and the bone graft internal fixation was performed on Jul. 22, 2016. […]

[3] = system: osteosarcoma of the right proximal fibula; experiment: Clinical case Example 8: patient; type: in vivo; conditions: prior chemotherapy, 1 cycle
Procedure: A patient experienced a pain on the outer side of the right lower leg with no obvious predisposing cause for 6 months. The pain was persistent and unrelated to movements such as walking, and could not be alleviated after rest. The patient was neither diagnosed nor treated, and the pain was gradually aggravated and occurred at night. […] The patient went for consultation on Dec. 1, 2017, and an incision biopsy of the tumor of the limb was performed on December 5. […] On Apr.
Methotrexate chemotherapy was given for 1 day on Dec. 12, 2017, Feb. 7, 2018, May 4, 2018 and Jul. 6, 2018, respectively. IFO chemotherapy (1 cycle) was given during the following time periods: from Dec. 16, 2017 to […], from Mar. 2, 2018 to Mar. 7, 2018 (the therapeutic effect was evaluated as SD), from Apr. 18, 2018 to Apr. 22, 2018 (platelet reduction (Grade IV)), from Jun. 14, 2018 to Jun. 18, 2018 (the therapeutic effect was evaluated as SD), from Aug. 30, 2018 to Sep. 3, 2018 (the therapeutic effect was evaluated as PD). Cisplatin and amrubicin chemotherapy (1 cycle) was respectively given during the following time periods: from Jan. 17, 2018 to Jan. 20, 2018, from May 24, 2018 to May 27, 2018, and from Jul. 20, 2018 to Jul. 23, 2018 (the therapeutic effect was evaluated as SD). […]

[4] = system: osteosarcoma cell lines 143B, U2OS, MG63 and SJSA; experiment: Detection of cell apoptosis by flow cytometer (Annexin-V-FITC/PI), with or without cisplatin; type: cell-based, Human; conditions: 2 μM Anlotinib with 10 μM cisplatin (DDP), 24 h
Procedure: 1.2.5 Detection of cell apoptosis by flow cytometer: 143B cells, U2OS cells, MG63 cells and SJSA cells were added to the liquid culture media containing 2 μM Anlotinib (with or without 10 μM cisplatin (DDP)) for cultivation. The cells were collected after 24 h, centrifuged at 1000 r/min for 1 min, and rinsed with PBS. Afterwards, an Annexin-V-FITC/PI Cell Apoptosis Detection Kit was used to detect the apoptosis of cells. The cells were added to 100 μL of 1×Binding buffer and resuspended, 5 μL of AnnexinV-FITC and 2.5 μL of PI staining reagent were added, and the mixture was shaken and mixed evenly in the dark. The resultant was reacted at room temperature for 15 min, 300 μL of 1×Binding buffer was then added, and the resulting mixture was mixed evenly and detected by a flow cytometer. The experiment was repeated 3 times.

MG63 cells = experiment: Detection of cell proliferation by cck-8; type: cell-based; conditions: Homo sapiens, MG-63
Procedure: (§1) 1.2.1 Cell culture: Osteosarcoma cell lines 143B, […], MG63 and SJSA were cultured in DMEM complete culture medium (containing fetal bovine serum with a volume fraction of 10%, 0.1 g/L streptomycin, and 100 U/mL penicillin), and was incubated in a thermostatic incubator containing 5% CO2 (volume fraction) at 37° C. When about 85% cell confluence was reached, the cells were detached by using a mixed cell detachment solution containing 0.02% EDTA and 0.25% trypsin, and then the cells were collected, centrifuged at 1000 r/min for 3 min, and subcultured.
(§2) 1.2.2 Detection of cell proliferation by cck-8: 143B cells, U2OS cells, MG63 cells and SJSA cells in logarithmic growth phase were collected, rinsed with PBS, counted, and dispensed into separate tubes. The cells were seeded into a 96-well plate (3000 cells/well) and cultured for 24 h to allow for cell attachment. […] 100 μL of cck-8 reagent diluted 10-fold with DMEM culture medium was added into each well and the resulting mixture was incubated at 37° C. for 45 minutes. The absorbance value of the resultant in each well at 450 nm was detected by using a microplate reader.

U2OS cells = experiment: Detection of cell proliferation by cck-8; type: cell-based; conditions: Homo sapiens
Procedure: as §1, §2

SJSA cells = experiment: Detection of cell proliferation by cck-8; type: cell-based; conditions: Homo sapiens
Procedure: as §1, §2

143B cells = experiment: Detection of cell proliferation by cck-8; type: cell-based; conditions: Homo sapiens
Procedure: as §1, §2

[5] = system: osteosarcoma cell lines 143B, U2OS, MG63 and SJSA; experiment: Transwell cell migration and invasion; type: cell-based, Human; conditions: 1 μM, 24 hours
Procedure: 1.2.6 Experimental analysis of Transwell cell migration and invasion: Cells were seeded at the upper end of the Transwell chamber (5×10^4 cells/well). 143B cells, U2OS cells, MG63 cells and SJSA cells were treated with 1 μM Anlotinib. A culture medium containing 2% serum was added to the upper end of the Transwell chamber (4 hours of pretreatment with 10% matrigel was required in the invasion experiment), and a culture medium containing 10% serum was added to the lower end. After 24 hours, the cells were fixed with 4% paraformaldehyde, stained with crystal violet, and photographed under microscope.

[6] = system: osteosarcoma cell lines 143B, U2OS, MG63 and SJSA; experiment: Anti-proliferation effect on osteosarcoma cell lines (statement for all four lines); type: cell-based, Human; conditions: 0, 1, 2 or 4 μM for 24 or 48 hours; time- and concentration-dependent
Procedure: 1.2.2 Detection of cell proliferation by cck-8: 143B cells, U2OS cells, MG63 cells and SJSA cells in logarithmic growth phase were collected, rinsed with PBS, counted, and dispensed into separate tubes. The cells were seeded into a 96-well plate (3000 cells/well) and cultured for 24 h to allow for cell attachment. Anlotinib with different amount-of-substance concentrations (0 μM, 1 μM, 2 μM, 4 μM, 8 μM, 16 μM, 32 μM, and 64 μM) were then added, the mixture was incubated for 24 h, and then the detection was carried out. 100 μL of cck-8 reagent diluted 10-fold with DMEM culture medium was added into each well and the resulting mixture was incubated at 37° C. for 45 minutes. The absorbance value of the resultant in each well at 450 nm was detected by using a microplate reader.
In order to evaluate the anti-proliferation effects of Anlotinib on osteosarcoma cell lines 143B, U2OS, MG63 and SJSA, the osteosarcoma cell lines were treated with Anlotinib with a concentration of 0 μM, 1 μM, 2 μM or 4 μM for 24 hours or 48 hours.

[7] = system: osteosarcoma cell lines 143B, U2OS, MG63 and SJSA; experiment: Detection of cell cycle by flow cytometer; type: cell-based, Human; conditions: 0-4 μM, 24 h, PI staining
Procedure: 1.2.4 Detection of cell cycle by flow cytometer: 143B cells, U2OS cells, MG63 cells and SJSA cells were added to the liquid culture media containing different amount-of-substance concentrations of Anlotinib (0 μM, 1 μM, 2 μM, and 4 μM) for cultivation. The cells were collected after 24 h, centrifuged at 1000 r/min for 1 min, rinsed with PBS, and fixed with 70% ethanol. The PI staining solution of cell cycle analysis kit was added, the mixture was incubated in the dark at room temperature for 15 min, and the detection was carried out by using a flow cytometer. Images were analyzed by using ModFit software. The experiment was repeated 3 times.

bone marrow suppression grade ([1]; human, in vivo): Grade II | bone marrow suppression grade [2]: Grade I to II
Structure (SMILES): CN(Cc1cnc2nc(N)nc(N)c2n1)c1ccc(C(=O)N[C@@H](CCC(=O)O)C(=O)O)cc1 [Methotrexate, methotrexate]

Structure (SMILES): O=P1(NCCCl)OCCCN1CCCl (centres unmarked) [Ifosfamide, ifosfamide]
platelet reduction grade ([3]; Apr. 18, 2018 to Apr. 22, 2018): Grade IV | therapeutic effect ([3]; Aug. 30, 2018 to Sep. 3, 2018): PD (progressive disease, specifically means that the sum of the diameters of the tumor target lesions increases by 20% or more from the baseline level) | tolerability of chemotherapy ([1]; prior chemotherapy, 1 cycle, Jan. 19, 2017): no obvious gastrointestinal reaction and bone marrow suppression | leucocytopenia grade ([1]; prior chemotherapy, Aug. 16, 2017): Grade IV | leucocytopenia grade ([1]; prior chemotherapy, Jun. 19, 2017 (after doxorubicin and cisplatin Jun. 4, 2017)): Grade IV | leucocytopenia grade ([1]; prior chemotherapy, Mar. 10, 2017): Grade II | leucocytopenia grade ([1]; prior chemotherapy, May 3, 2017): Grade IV

IC50 (U2OS cells; 24 h, read-out: IC50 (24 h)): 41.3 µM | IC50 (U2OS cells; 48 h, read-out: IC50 (48 h)): 25.9 µM | IC50 (SJSA cells; 24 h, read-out: IC50 (24 h)): 25.7 µM | IC50 (SJSA cells; 48 h, read-out: IC50 (48 h)): 10.2 µM
Structure (SMILES): COc1cc2c(Oc3ccc4[nH]c(C)cc4c3F)ccnc2cc1OCC1(N)CC1 [Anlotinib, 1-[[[4-(4-fluoro-2-methyl-1H-indol-5-yl)oxy-6-methoxyquinolin-7-yl]oxy]methyl]cyclopropylamine]
apoptosis of osteosarcoma cell lines caused by cisplatin [4]: significantly enhancing | IC50 (MG63 cells; MG63, 24 h, read-out: IC50 (24 h)): 30.1 µM | IC50 (MG63 cells; MG63, 48 h, read-out: IC50 (48 h)): 14.8 µM | IC50 (143B cells; 24 h, read-out: IC50 (24 h)): 20.8 µM | IC50 (143B cells; 48 h, read-out: IC50 (48 h)): 7.95 µM | migration of osteosarcoma cell lines [5]: greatly inhibited | invasion of osteosarcoma cell lines ([5]; matrigel): greatly inhibited | effect on the proliferation of the osteosarcoma cell lines [6]: significant inhibitory effect | cell cycle arrest [7]: G2/M cycle arrest occurred in cells | cells in G1 phase [7]: decrease of cells in G1 phase
